In test [1] the target is T1, Prostaglandin E2 receptor EP3 subtype (Mus musculus, UniProt P30557).
T1 sequence (P30557 whole entry): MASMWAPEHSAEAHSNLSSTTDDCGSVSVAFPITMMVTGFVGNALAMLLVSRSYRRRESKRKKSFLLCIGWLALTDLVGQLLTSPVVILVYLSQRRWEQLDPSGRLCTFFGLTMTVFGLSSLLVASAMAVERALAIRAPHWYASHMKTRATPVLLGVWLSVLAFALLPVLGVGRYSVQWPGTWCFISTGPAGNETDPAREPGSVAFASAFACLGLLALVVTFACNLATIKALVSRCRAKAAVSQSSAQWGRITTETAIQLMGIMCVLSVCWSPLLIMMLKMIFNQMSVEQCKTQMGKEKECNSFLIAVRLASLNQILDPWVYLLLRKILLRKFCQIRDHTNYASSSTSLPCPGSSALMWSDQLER
The test is described as follows: Affinity for mouse Prostanoid EP3 receptor expressed in CHO cells. The class given is cell-based.

The target in test [2] is Prostaglandin E2 receptor EP2 subtype (Mus musculus, UniProt Q62053). Kind of test: Affinity for mouse Prostanoid EP2 receptor expressed in CHO cells. The class given is cell-based.
The target of test [3] is T2, Prostaglandin E2 receptor EP1 subtype (Mus musculus, UniProt P35375).
T2 sequence (P35375 whole entry): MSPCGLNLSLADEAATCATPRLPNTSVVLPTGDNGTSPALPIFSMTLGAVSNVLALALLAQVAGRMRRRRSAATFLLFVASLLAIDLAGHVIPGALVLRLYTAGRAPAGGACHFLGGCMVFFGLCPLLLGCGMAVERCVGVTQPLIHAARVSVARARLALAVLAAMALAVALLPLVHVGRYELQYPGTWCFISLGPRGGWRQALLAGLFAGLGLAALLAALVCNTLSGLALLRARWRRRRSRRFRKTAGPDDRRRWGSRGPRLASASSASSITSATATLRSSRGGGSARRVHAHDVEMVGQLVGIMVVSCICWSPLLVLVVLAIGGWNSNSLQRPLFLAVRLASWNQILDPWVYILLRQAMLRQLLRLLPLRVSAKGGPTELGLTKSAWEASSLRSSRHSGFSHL
The test is described as follows: Affinity for mouse Prostanoid EP1 receptor expressed in CHO cells. The class given is cell-based.

The target in test [4] is T3, Prostaglandin E2 receptor EP4 subtype (Mus musculus, UniProt P32240). The test is described as follows: Affinity for mouse Prostanoid EP4 receptor expressed in CHO cells. The class given is cell-based.
For test [5], the target named is Prostacyclin receptor (Homo sapiens, UniProt P43119). The test is described as follows: Affinity for human Prostanoid IP receptor expressed in CHO cells. The class given is cell-based.
Test [6] deals with T3, Prostaglandin E2 receptor EP4 subtype. Kind of test: Effective concentration for increased intracellular c-AMP production by mouse Prostanoid EP4 receptor. The class given is functional, cell-based.
For test [7], the species on record is Rattus norvegicus. The test is described as follows: Stimulation of Uterine motility which mediates the EP3-receptor in rats. The class given is functional.
In test [8] the test system is Rattus norvegicus. Kind of test: Suppression of production of plasma TNF-alpha after intravenous infusion of 10, 30, 100 and 300 ng/kg/min; significant. The class given is functional, organism-based.

Sequence of Prostaglandin E2 receptor EP2 subtype (Q62053 whole entry): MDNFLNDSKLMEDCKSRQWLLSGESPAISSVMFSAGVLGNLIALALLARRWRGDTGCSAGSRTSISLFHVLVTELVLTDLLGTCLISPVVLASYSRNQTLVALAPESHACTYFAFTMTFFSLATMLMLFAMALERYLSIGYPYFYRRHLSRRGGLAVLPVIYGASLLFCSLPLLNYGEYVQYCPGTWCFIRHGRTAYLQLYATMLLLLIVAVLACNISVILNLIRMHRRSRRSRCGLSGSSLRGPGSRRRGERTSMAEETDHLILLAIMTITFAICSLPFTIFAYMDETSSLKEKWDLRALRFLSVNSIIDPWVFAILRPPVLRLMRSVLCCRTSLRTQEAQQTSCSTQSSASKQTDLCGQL
Sequence of Prostacyclin receptor (P43119 whole entry): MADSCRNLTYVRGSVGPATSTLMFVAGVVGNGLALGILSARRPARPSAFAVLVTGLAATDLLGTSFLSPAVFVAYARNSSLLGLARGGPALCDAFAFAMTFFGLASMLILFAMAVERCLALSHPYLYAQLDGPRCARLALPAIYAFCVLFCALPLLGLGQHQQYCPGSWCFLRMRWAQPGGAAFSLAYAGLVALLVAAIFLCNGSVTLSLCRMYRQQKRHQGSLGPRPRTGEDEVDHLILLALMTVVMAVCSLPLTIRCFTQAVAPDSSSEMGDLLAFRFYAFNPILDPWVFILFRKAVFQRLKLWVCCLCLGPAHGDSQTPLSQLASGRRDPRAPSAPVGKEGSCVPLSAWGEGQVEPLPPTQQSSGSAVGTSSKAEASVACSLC
T3 sequence (P32240 whole entry): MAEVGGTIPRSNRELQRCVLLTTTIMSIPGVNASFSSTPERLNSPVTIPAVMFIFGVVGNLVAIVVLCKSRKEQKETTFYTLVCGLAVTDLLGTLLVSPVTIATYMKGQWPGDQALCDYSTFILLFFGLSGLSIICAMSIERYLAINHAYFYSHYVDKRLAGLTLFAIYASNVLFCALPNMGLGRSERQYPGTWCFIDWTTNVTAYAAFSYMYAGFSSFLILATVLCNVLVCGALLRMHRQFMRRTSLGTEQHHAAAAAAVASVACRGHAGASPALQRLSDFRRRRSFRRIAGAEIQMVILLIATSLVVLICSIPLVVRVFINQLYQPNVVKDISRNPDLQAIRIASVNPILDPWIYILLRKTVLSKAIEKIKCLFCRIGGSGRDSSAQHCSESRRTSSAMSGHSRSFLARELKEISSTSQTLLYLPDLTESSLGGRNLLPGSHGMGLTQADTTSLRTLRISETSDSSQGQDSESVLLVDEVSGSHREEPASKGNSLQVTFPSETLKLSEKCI

The Ki is a measure of affinity in units of concentration, obtained from inhibition or displacement. High values mean weaker binding, low ones tighter binding. As a reminder, the EC50 is the concentration that produces a half-maximal response. As for `CCCCC[C@H](O)/C=C/[C@H]1[C@H](O)CC(=O)[C@@H]1CSCCCCC(=O)O`, the inhibition constant (Ki) in test [1] is 2 nM; in test [2], 91 nM; in test [3], 95 nM; in test [4], 8.7 nM; in test [5], 1400 nM. Besides, a half-maximal response in test [6] (EC50) required 1000 nM.

For the molecule `CCCCC[C@H](O)/C=C/[C@H]1[C@H](O)CC(=O)[C@@H]1CCCSCCC(=O)O`, the inhibitory constant (Ki) came to 3.7 nM in test [1]; 340 nM in test [2]; 27 nM in test [3]; 11 nM in test [4]; 920 nM in test [5]. In addition, the EC50 in test [6] was 1000 nM.

On to `COCc1cccc(C[C@H](O)/C=C/[C@@H]2[C@@H](CCSCCCC(=O)O)[C@H](F)C[C@H]2O)c1`, for which the inhibition constant Ki was 3100 nM in test [2], 32 nM in test [4] and greater than 10000 nM in test [5]. Further, the EC50 in test [6] is 270 nM.

As to `CCCCC[C@H](O)/C=C/[C@H]1[C@H](O)CC(=O)[C@@H]1CCCCCCC(=O)O` [ALPROSTADIL], the inhibition constant (Ki) in test [2] was 22 nM; in test [3], 6 nM; in test [4], 3.1 nM; in test [5], greater than 10000 nM. The molecule also returned a concentration giving a half-maximal response (EC50) in test [6] of 3.6 nM.

Turning to `COCc1cccc(C[C@H](O)/C=C/[C@H]2[C@H](O)CC(=O)[C@@H]2CCSCCCC(=O)O)c1`, the inhibitory constant (Ki) in test [1] was 56 nM; in test [2], 620 nM; in test [3], greater than 10000 nM; in test [4], 0.7 nM; in test [5], greater than 10000 nM. In addition, a half-maximal response in test [6] (EC50) required 1.6 nM.

Broadly, the ED50 is the midpoint of the dose-response relation. For the molecule `COCc1cccc(C[C@H](O)/C=C/[C@H]2[C@H](O)CC(=O)[C@@H]2CCSCCCC(=O)OC)c1` [RIVENPROST], the 50% effective dose (ED50) in test [7] is greater than 300 mg/kg. In addition, the Supression result in test [8] is recorded as “significant”.

As for `CCCCC[C@H](O)/C=C/[C@H]1[C@H](O)CC(=O)[C@@H]1CCCCSCC(=O)O`, the Ki in test [1] is 1.2 nM; in test [2], 49 nM; in test [3], 200 nM; in test [4], 2.1 nM; in test [5] it was greater than 10000 nM. This molecule also gave a half-maximal effective concentration (EC50) in test [6] of 46 nM.

Consider `Cc1cc(C[C@H](O)/C=C/[C@@H]2[C@@H](C/C=C/CCCC(=O)O)[C@H](Cl)C[C@H]2O)ccc1O`, for which the Ki was 2200 nM in test [1]; 290 nM in test [2]; 3100 nM in test [3]; 7.7 nM in test [4]; greater than 10000 nM in test [5]. In test [6], the half-maximal effective concentration (EC50) was found to be 44 nM.

In the case of `Cc1cc(C[C@H](O)/C=C/[C@H]2[C@H](O)CC(=O)[C@@H]2CCSCCCC(=O)O)ccc1O`, the inhibition constant (Ki) in test [2] is 7400 nM; in test [4], 4.9 nM; in test [5], greater than 10000 nM. The EC50 in test [6] was determined as 20 nM.

Consider `COCc1cccc(C[C@H](O)/C=C/[C@@H]2[C@@H](C/C=C/CCCC(=O)O)[C@H](Cl)C[C@H]2O)c1`, for which the inhibition constant (Ki) was 92 nM in test [1]; 12 nM in test [2]; 980 nM in test [3]; 0.5 nM in test [4]; greater than 10000 nM in test [5]. In test [6], this molecule registered an EC50 of 3.3 nM.

As for `COCc1cccc(C[C@H](O)/C=C/[C@@H]2[C@@H](C/C=C/CCCC(=O)O)[C@H](F)C[C@H]2O)c1`, the Ki in test [1] was 94 nM; in test [2] it was 58 nM; in test [3], 1700 nM; in test [4], 3.4 nM; in test [5], greater than 10000 nM. For the same molecule, the response in test [6] was half-maximal at 14 nM (EC50).

For `COCc1cccc(C[C@H](O)/C=C/[C@@H]2[C@@H](CCCCCCC(=O)O)[C@H](Cl)C[C@H]2O)c1`, the inhibition constant Ki in test [1] is 740 nM; in test [2], 370 nM; in test [3], 5400 nM; in test [4], 2.7 nM; in test [5] it was greater than 10000 nM. In test [6], this molecule showed an EC50 of 160 nM.

On to `CCCCC[C@H](O)/C=C/[C@H]1[C@H](O)CC(=O)[C@@H]1CCSCCCC(=O)O`, for which the Ki in test [1] is 1.9 nM; in test [2], 75 nM; in test [3] it was 52 nM; in test [4], 0.5 nM; in test [5] it was 750 nM. The molecule further registered an EC50 in test [6] of 3.6 nM.

The record behind these values is ChEMBL document CHEMBL1133894, “Design and synthesis of a highly selective EP4-receptor agonist. Part 2: 5-thia and 9beta-haloPG derivatives with improved stability” (Bioorg Med Chem Lett, 2001).
